# Data taken from patent publication US10150728B2, “Alkylene derivatives” (Shionogi & Co., Ltd., priority 2013, dated 2018).
# Target: recombinant human ACC2 (Homo sapiens (Human), UniProt O00763)
# Experiment: Measurement of inhibitory activity on human ACC2 (MALDI-TOF MS, acetyl CoA to malonyl CoA conversion)
# Format: biochemical
# Details: Tables 155-159
# Summary of the method: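 His-tagged human ACC2 (residues 27–2458) from baculovirus-infected Sf-9 cells was preincubated 1 h in pH 7.4 HEPES-KOH buffer with MgCl2, 6-10 mM potassium citrate, glutathione and BSA. Substrate solution held 1 mM ATP, 0.8 mM acetyl CoA and 25-50 mM bicarbonate. After 1–3 h at room temperature, malonyl CoA/(malonyl+acetyl CoA) was read by negative-mode MALDI-TOF MS; citrate, bicarbonate and time varied by enzyme lot.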
# recombinant human ACC2, sequence (O00763 27-2458): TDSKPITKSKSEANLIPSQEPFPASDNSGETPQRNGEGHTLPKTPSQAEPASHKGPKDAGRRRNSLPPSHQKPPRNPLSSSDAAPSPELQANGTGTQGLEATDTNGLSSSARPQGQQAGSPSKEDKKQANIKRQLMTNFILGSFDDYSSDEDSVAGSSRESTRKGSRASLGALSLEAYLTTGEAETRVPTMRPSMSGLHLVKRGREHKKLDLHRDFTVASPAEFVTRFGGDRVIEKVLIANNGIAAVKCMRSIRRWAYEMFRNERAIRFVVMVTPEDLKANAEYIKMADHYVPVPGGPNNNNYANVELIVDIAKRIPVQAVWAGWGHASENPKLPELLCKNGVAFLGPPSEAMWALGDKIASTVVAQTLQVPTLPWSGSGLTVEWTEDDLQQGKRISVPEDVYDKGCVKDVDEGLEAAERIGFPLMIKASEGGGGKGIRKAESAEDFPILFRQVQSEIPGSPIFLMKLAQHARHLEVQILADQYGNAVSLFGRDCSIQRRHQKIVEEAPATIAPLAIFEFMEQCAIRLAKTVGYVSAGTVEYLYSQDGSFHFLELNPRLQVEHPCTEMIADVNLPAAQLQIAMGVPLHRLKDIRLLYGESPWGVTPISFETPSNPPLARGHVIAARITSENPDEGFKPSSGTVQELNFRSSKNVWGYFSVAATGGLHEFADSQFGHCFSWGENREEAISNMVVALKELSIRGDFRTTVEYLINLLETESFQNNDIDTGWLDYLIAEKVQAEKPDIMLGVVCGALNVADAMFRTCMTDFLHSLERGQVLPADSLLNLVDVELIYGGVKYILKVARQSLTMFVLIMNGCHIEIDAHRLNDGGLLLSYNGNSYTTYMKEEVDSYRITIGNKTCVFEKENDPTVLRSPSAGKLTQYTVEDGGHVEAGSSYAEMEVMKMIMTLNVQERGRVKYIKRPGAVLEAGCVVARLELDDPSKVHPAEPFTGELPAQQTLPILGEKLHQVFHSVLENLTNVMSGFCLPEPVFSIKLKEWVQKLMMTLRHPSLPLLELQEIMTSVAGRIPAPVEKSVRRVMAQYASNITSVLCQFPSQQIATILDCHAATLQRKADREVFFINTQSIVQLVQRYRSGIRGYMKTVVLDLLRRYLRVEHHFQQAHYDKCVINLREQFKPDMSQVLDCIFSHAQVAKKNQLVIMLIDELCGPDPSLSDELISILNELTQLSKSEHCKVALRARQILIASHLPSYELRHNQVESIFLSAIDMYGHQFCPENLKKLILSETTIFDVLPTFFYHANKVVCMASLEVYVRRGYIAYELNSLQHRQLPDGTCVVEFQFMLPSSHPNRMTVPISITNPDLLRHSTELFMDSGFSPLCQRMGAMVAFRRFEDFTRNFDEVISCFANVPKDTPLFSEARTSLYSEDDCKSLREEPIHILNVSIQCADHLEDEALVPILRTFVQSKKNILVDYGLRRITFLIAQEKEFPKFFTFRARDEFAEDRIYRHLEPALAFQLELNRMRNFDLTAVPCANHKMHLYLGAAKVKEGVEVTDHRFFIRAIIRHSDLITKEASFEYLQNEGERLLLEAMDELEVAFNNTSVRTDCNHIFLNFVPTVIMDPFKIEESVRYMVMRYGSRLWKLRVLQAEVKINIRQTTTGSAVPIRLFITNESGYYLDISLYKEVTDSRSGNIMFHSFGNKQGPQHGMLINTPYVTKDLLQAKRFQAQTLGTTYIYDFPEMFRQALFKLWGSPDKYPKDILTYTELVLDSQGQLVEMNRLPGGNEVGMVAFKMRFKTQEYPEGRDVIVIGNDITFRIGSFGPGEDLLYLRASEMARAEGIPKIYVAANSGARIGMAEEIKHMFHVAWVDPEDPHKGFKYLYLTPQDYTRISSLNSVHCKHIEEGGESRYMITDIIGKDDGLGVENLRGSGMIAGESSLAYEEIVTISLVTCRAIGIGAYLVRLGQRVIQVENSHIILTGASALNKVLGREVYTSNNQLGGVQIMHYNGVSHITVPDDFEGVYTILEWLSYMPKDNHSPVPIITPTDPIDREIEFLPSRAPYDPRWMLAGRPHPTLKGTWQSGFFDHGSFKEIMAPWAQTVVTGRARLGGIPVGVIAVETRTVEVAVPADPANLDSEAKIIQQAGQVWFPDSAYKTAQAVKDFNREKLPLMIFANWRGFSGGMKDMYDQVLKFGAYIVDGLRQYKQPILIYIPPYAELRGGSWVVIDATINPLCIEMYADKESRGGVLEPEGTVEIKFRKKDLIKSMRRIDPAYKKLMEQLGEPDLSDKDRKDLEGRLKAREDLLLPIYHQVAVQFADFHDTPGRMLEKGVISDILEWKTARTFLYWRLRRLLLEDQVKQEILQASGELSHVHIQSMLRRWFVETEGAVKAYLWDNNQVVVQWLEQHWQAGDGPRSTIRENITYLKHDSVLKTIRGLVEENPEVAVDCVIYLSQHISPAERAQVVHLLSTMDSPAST
row,Structure (SMILES),IC50 [nM]
1,CC(=O)N[C@@H](C)CO[C@H]1C[C@H](COc2ccc3nc(OCC4CC4)n(C)c3n2)C1 [Compound I-476],74
2,CC(=O)N[C@@H](C)CO[C@H]1C[C@H](COc2ccc3nc(OCC4CC4(F)F)n(C)c3n2)C1 (stereo partly drawn) [Compound I-477],247
3,CCOc1nc2ccc(OC[C@H]3C[C@H](OC[C@H](C)NC(C)=O)C3)nc2n1CC [Compound I-479],563
4,CC(=O)N[C@@H](C)CO[C@H]1C[C@H](COc2ccc3nc(Oc4ccccc4)n(C)c3n2)C1 [Compound I-481],298
5,CC(=O)N[C@@H](C)CO[C@H]1C[C@H](COc2ccc3nc(OCCC(C)C)n(C)c3n2)C1 [Compound I-482],87
6,CCCOc1nc2ccc(OC[C@H]3C[C@H](OC[C@H](C)NC(C)=O)C3)nc2n1C [Compound I-483],81
7,CC(=O)N[C@@H](C)CO[C@H]1C[C@H](COc2ccc3nc(OC[C@H](C)F)n(C)c3n2)C1 [Compound I-485],180
8,CCOc1nc2cc(Cl)c(OC[C@H]3C[C@H](OC[C@H](C)NC(C)=O)C3)nc2n1C [Compound I-488],314
9,CCOc1nc2ccc(OC[C@H]3C[C@H](OC[C@H](C)NC(C)=O)C3)c(Cl)c2n1C [Compound I-490],480
10,CCOc1nc2ccc(O[C@H]3CC[C@H](OC[C@H](C)NC(C)=O)CC3)nc2n1C [Compound I-491],51
11,CC(=O)N[C@@H](C)CO[C@H]1CC[C@H](Oc2ccc3nc(OC(C)C)n(C)c3n2)CC1 [Compound I-494],46
12,CC(=O)N[C@@H](C)CO[C@H]1CC[C@H](Oc2ccc3nc(OC4CC4)n(C)c3n2)CC1 [Compound I-495],74
13,CC(=O)N[C@@H](C)CO[C@H]1CC[C@H](Oc2ccc3nc(OCC4CC4)n(C)c3n2)CC1 [Compound I-496],24
14,CC(=O)N[C@@H](C)CO[C@H]1CC[C@H](Oc2ccc3nc(OCC(F)(F)F)n(C)c3n2)CC1 [Compound I-498],13
15,CC(=O)N[C@@H](C)CO[C@H]1CC[C@H](Oc2ccc3nc(OCC(F)F)n(C)c3n2)CC1 [Compound I-499],40
16,CC(=O)N[C@@H](C)CO[C@H]1CC[C@H](Oc2ccc3nc(OCC(C)(F)F)n(C)c3n2)CC1 [Compound I-500],21
17,CC(=O)N[C@@H](C)CO[C@H]1CC[C@H](Oc2ccc3nc(OCC4CC4(F)F)n(C)c3n2)CC1 (stereo partly drawn) [Compound I-503],24
18,CC(=O)N[C@@H](C)CO[C@H]1CC[C@H](Oc2ccc3nc(OCCC(F)(F)F)n(C)c3n2)CC1 [Compound I-504],18
19,CCCOc1nc2ccc(O[C@H]3CC[C@H](OC[C@H](C)NC(C)=O)CC3)nc2n1C [Compound I-505],12
20,CCOc1nc2ccc(O[C@H]3CC[C@H](OC[C@H](C)NC(C)=O)CC3)c(F)c2n1C [Compound I-507],132
21,CC(=O)N[C@@H](C)CO[C@H]1CC[C@H](Oc2cc(C)c3nc(Oc4ccc(F)cc4)n(C)c3n2)CC1 [Compound I-508],81
22,CCOc1nc2cc(Cl)c(O[C@H]3CC[C@H](OC[C@H](C)NC(C)=O)CC3)nc2n1C [Compound I-510],28
23,CC(=O)N[C@@H](C)CO[C@H]1CC[C@H](Oc2ccc3nc(CC4CC4)n(C)c3n2)CC1 [Compound I-512],110

row,Structure (SMILES),IC50 [nM]
1,CCOc1nc2cc(F)c(O[C@H]3CC[C@H](OC[C@H](C)NC(C)=O)CC3)nc2n1C [Compound I-516],27
2,CCCOc1nc2cc(F)c(O[C@H]3CC[C@H](OC[C@H](C)NC(C)=O)CC3)nc2n1C [Compound I-517],14
3,CC(=O)N[C@@H](C)CO[C@H]1CC[C@H](Oc2nc3c(cc2F)nc(OC2CC(F)(F)C2)n3C)CC1 [Compound I-518],13
4,CCOc1nc2ccc(OC[C@H]3C[C@H](OC[C@H](C)NC(C)=O)C3)nc2n1C [Compound I-519],170
5,CC(=O)N[C@@H](C)CO[C@H]1CC[C@H](Oc2ncc(-c3ncc(F)cn3)cc2Cl)CC1 [Compound I-522],8
6,CC(=O)N[C@@H](C)CO[C@H]1CC[C@H](Oc2ncc(-c3ncc(C#N)cn3)cc2F)CC1 [Compound I-524],64
7,CC(=O)N[C@@H](C)CO[C@H]1CC[C@H](Oc2ncc(-c3ncc(F)cn3)cc2C#N)CC1 [Compound I-525],41
8,CC(=O)N[C@@H](C)CO[C@H]1CC[C@H](Oc2ncc(-c3ncc(Cl)cn3)cc2F)CC1 [Compound I-526],13
9,COc1cc(-c2ncc(F)cn2)cnc1O[C@H]1CC[C@H](OC[C@H](C)NC(C)=O)CC1 [Compound I-527],158
10,CC(=O)N[C@@H](C)CO[C@H]1CC[C@H](Oc2ncc(-c3ncc(C(C)C)cn3)cc2F)CC1 [Compound I-529],172
11,CC(=O)N[C@@H](C)CO[C@H]1CC[C@H](Oc2ncc(-c3nccc(C#N)n3)cc2F)CC1 [Compound I-531],481
12,CC(=O)N[C@@H](C)CO[C@H]1CC[C@H](Oc2ncc(-c3ncc(F)cn3)cc2C)CC1 [Compound I-532],6
13,CCc1cnc(-c2cnc(O[C@H]3CC[C@H](OC[C@H](C)NC(C)=O)CC3)c(F)c2)nc1 [Compound I-533],102
14,CC(=O)N[C@@H](C)CO[C@H]1CC[C@H](Oc2ncc(-c3ncc(C)cn3)cc2F)CC1 [Compound I-534],67
15,CC(=O)N[C@@H](C)CO[C@H]1CC[C@H](Oc2ncc(-c3ncc(C4CC4)cn3)cc2F)CC1 [Compound I-536],28
16,CC(=O)N[C@@H](C)CO[C@H]1CC[C@H](Oc2ncc(-c3ncc(F)cn3)cc2OCc2ccccc2)CC1 [Compound I-537],975
17,C[C@@H](CO[C@H]1CC[C@H](Oc2ncc(-c3ncc(F)cn3)cc2F)CC1)NC(N)=O [Compound I-538],71
18,CCOC(=O)c1cc(C(=O)N[C@@H](C)CO[C@H]2CC[C@H](Oc3ncc(-c4ncc(F)cn4)cc3F)CC2)ccn1 [Compound I-539],92
19,COC(=O)N[C@@H](C)CO[C@H]1CC[C@H](Oc2ncc(-c3ncc(F)cn3)cc2F)CC1 [Compound I-541],130
20,CC(=O)N[C@@H](C)CO[C@H]1CC[C@H](Oc2ncc(-c3ncc(F)cn3)cc2F)CC1 [Compound I-542],6
21,CC(=O)N[C@@H](C)CC[C@H]1CC[C@H](Oc2ncc(-c3ncc(C(F)(F)F)cn3)cc2F)CC1 [Compound I-543],14
22,CC(=O)N[C@@H](C)CO[C@H]1CC[C@H](Oc2ncc(-c3ncc(C(F)(F)F)cn3)cc2F)CC1 [Compound I-545],46

# Further lines, results first:
row,IC50 [nM],Structure (SMILES)
1,116,CC(=O)N[C@@H](C)CO[C@H]1C[C@H](COc2ccc3nc(OC4CC(F)(F)C4)n(C)c3n2)C1 [Compound I-478]
2,41,CC(=O)N[C@@H](C)CO[C@H]1C[C@H](COc2ccc3nc(OCc4ccccc4)n(C)c3n2)C1 [Compound I-480]
3,204,CC(=O)N[C@@H](C)CO[C@H]1C[C@H](COc2ccc3nc(OCC(F)F)n(C)c3n2)C1 [Compound I-484]
4,724,CC(=O)N[C@@H](C)CO[C@H]1C[C@H](COc2cc(C)c3nc(OCC4CC4)n(C)c3n2)C1 [Compound I-486]
5,363,CCOc1nc2ccc(OC[C@H]3C[C@H](OC[C@H](C)NC(C)=O)C3)c(F)c2n1C [Compound I-487]
6,843,CC(=O)N[C@@H](C)CO[C@H]1C[C@H](COc2ccc3nc(OCC4CC4)n(C)c3c2)C1 [Compound I-489]
7,70,CCOc1nc2ccc(O[C@H]3CC[C@H](OC[C@H](C)NC(C)=O)CC3)nc2n1CC [Compound I-493]
8,15,CC(=O)N[C@@H](C)CO[C@H]1CC[C@H](Oc2ccc3nc(OC4CC(F)(F)C4)n(C)c3n2)CC1 [Compound I-497]
9,9,CC(=O)N[C@@H](C)CO[C@H]1CC[C@H](Oc2ccc3nc(OCc4ccccc4)n(C)c3n2)CC1 [Compound I-501]
10,62,CC(=O)N[C@@H](C)CO[C@H]1CC[C@H](Oc2ccc3nc(OC4(C)CC4)n(C)c3n2)CC1 [Compound I-502]
11,249,CCOc1nc2ccc(O[C@H]3CC[C@H](OC[C@H](C)NC(C)=O)CC3)cc2n1C [Compound I-506]
12,225,CC(=O)N[C@@H](C)CO[C@H]1CC[C@H](Oc2cc(C)c3nc(OCC4CC4)n(C)c3n2)CC1 [Compound I-509]
13,22,CC(=O)N[C@@H](C)CO[C@H]1CC[C@H](Oc2ccc3nc(OC4CCC(F)(F)CC4)n(C)c3n2)CC1 [Compound I-511]
14,260,CC(=O)N[C@@H](C)CO[C@H]1CC[C@H](Oc2ccc3nc(C(C)C)n(C)c3n2)CC1 [Compound I-513]
15,32,CC(=O)N[C@@H](C)CO[C@H]1CC[C@H](Oc2ccc3nc(CCC4CC4)n(C)c3n2)CC1 [Compound I-514]
16,41,CC(=O)N[C@@H](C)CO[C@H]1CC[C@H](Oc2ccc3nc(CCC(F)(F)F)n(C)c3n2)CC1 [Compound I-515]
17,315,CCOc1nc2ccc(OC[C@H]3C[C@@H](OC[C@H](C)NC(C)=O)C3)nc2n1C [Compound I-520]
18,20,CC(=O)N[C@@H](C)CO[C@H]1CC[C@H](Oc2ncc(-c3ncc(F)cn3)cc2F)CC1 [Compound I-521]
19,105,CC(=O)N[C@@H](C)CO[C@H]1CC[C@H](Oc2ncc(-c3ncccn3)cc2F)CC1 [Compound I-523]
20,61,COc1cnc(-c2cnc(O[C@H]3CC[C@H](OC[C@H](C)NC(C)=O)CC3)c(F)c2)nc1 [Compound I-528]
21,196,CC(=O)N[C@@H](C)CO[C@H]1CC[C@H](Oc2ncc(-c3ncc(C#N)cn3)cc2C#N)CC1 [Compound I-530]
22,30,CC(=O)N[C@@H](C)CO[C@H]1CC[C@H](Oc2ncc(-c3ncc(Cl)cn3)cc2C#N)CC1 [Compound I-535]
23,323,C[C@@H](CO[C@H]1CC[C@H](Oc2ncc(-c3ncc(F)cn3)cc2F)CC1)NS(C)(=O)=O [Compound I-540]
24,4,CC(=O)N[C@@H](C)CC[C@H]1CC[C@H](Oc2ncc(-c3ncc(Cl)cn3)cc2F)CC1 [Compound I-544]
